Data taken from patent publication US20260014178A1, “COMPOSITIONS AND USES THEREOF” (Optibiotix Limited, priority 2022, published 2026).

Key:
[1] = test system: gut microbiome; assay: pH-controlled anaerobic faecal cultures, organic acid production; format: cell-based; conditions: FIG. 3
Experimental: pH-controlled, anaerobic, faecal cultures were carried out to evaluate the impact of each test carbohydrate on gut microbiome composition and activity (organic acid production). The test carbohydrates were as follows: Inulin, Fructooligosaccharides (FOS), Xylooligosaccharides (XOS), gentiooligosaccharides (GeOS) and cellobiose.
(§1) All carbohydrates were tested in parallel, using the same faecal sample from a healthy donor. Fermentations were repeated using the faecal samples of each of 6 donors. Faeces in the absence of test substrate were used as the negative control in each run.

[2] = test system: gut microbiome; assay: Non pH-controlled anaerobic faecal cultures, gas production; format: cell-based; conditions: 6 donors, FIG. 1
Experimental: Non pH-controlled, anaerobic, faecal cultures were investigated to evaluate the rate of gas production and cumulative gas production over 24 h in the presence of each test substrate.
as §1

## O=C[C@H](O)[C@@H](O)[C@H](O[C@@H]1O[C@H](CO)[C@@H](O)[C@H](O)[C@H]1O)[C@H](O)CO [Cellobiose, cellobiose]
[1]
  lactate production / accumulation: high levels
[2]
  rate of gas production: significantly higher compared to all test substrates
